Test results reported in PubChem BioAssay AID2696 (Johns Hopkins Ion Channel Center, 2010).
Where “and” joins values, the source holds several entries; their conditions need not be identical. Identical values can stand only once.

Biological target: Short transient receptor potential channel 6 (Mus musculus) (UniProt Q61143)
Experiment: TRPC6 inhibitor potency, dose response, cell-based, mouse TRPC6, HEK293, membrane potential (AID 2696)
Conditions: TRPC6-expressing HEK293 cells, membrane potential dye fluorescence, acetylcholine-stimulated

Sequence of Short transient receptor potential channel 6 (Mus musculus) (Q61143 whole entry, looked up): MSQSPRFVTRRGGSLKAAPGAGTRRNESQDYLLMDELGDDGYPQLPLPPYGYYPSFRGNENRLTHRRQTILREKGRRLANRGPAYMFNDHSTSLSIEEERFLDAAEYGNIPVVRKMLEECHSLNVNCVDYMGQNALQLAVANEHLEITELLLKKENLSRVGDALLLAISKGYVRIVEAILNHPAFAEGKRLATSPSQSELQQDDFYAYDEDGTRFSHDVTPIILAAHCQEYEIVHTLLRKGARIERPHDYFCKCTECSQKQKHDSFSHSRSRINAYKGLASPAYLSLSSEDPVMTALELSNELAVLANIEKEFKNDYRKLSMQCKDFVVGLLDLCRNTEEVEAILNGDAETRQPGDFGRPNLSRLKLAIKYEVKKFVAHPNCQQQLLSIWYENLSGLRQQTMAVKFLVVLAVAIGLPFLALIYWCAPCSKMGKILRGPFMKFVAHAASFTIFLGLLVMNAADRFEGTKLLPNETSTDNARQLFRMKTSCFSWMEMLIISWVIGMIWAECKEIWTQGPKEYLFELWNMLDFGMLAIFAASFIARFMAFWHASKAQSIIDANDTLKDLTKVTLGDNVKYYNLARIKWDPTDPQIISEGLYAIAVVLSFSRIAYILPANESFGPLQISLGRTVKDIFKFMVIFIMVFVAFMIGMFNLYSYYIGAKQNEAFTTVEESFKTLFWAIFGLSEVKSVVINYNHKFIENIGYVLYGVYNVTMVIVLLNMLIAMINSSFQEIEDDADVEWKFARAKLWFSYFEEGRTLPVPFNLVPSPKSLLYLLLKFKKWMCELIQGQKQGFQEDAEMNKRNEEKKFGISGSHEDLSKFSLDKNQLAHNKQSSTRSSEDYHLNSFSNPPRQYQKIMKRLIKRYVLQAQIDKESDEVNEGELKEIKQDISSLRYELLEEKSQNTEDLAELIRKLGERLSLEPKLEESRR

| SMILES | IC50 |
| --- | --- |
| O=C(NNS(=O)(=O)c1ccc2ccccc2c1)C1CCN(Cc2ccccc2)CC1 | 1.41 µM |
| Cc1ccc(C[n+]2c(-c3ccc(C)cc3)cc(-c3ccc(C)cc3)cc2-c2ccc(C)cc2)cc1 | 79.4 µM |
| O=C1Nc2ccccc2/C1=N\N=C\C1=C(N2CCOCC2)C(=C\c2ccccc2)/CC1 | 39.8 µM |
| CCOC(=O)c1cnc2c(C)cccc2c1NCCCN1CCOCC1 | 44.7 µM |
| Cc1cc(C)n(-c2nc(NCCCN(C)C)c3c4c(sc3n2)CCCC4)n1 | 44.7 µM |
| C[N+](C)(C)CCOC(=O)C1(c2ccccc2)CCCC1 | 8.91 µM |
| CCCC(CCC)C(=O)OC[N+](C)(C)CCOC(=O)C(O)(c1ccccc1)C1CCCC1 (stereo not drawn) | 1.78 µM |
| CCN(CC)CCCOC(=O)C(OC(C)C)(c1ccccc1)c1ccccc1 | 3.98 µM |
| Cc1ccc(C23CC4CC(CC(CN)(C4)C2)C3)cc1 | 39.8 µM |
| CC[N+](C)(CC)CCOC(=O)C(O)(c1ccccc1)C1CCCCC1 (stereo not drawn) | 0.79 µM |
| COC(=O)c1[nH]c2ccccc2c1NC(=O)CN1CCN(C/C=C/c2ccccc2)CC1 | 50.1 µM |
| COc1ccccc1-n1c(-c2ccccc2)c[n+]2c1CCc1ccccc1-2 | 19.9 µM |
| CC(C)C(O)(C#CCN1CCCCC1)c1ccccc1 (stereo not drawn) | 11.2 µM |
| COc1ccc(C2NC(=O)NC(O)(C(F)(F)F)C2C(=O)c2ccc(C)cc2)cc1 (stereo not drawn) | 14.1 µM |
| Nc1c2c(nc3ccn(Cc4ccccc4)c(=O)c13)CCC2 | 70.8 µM |
| CCOC(=O)c1ccc(NC(=O)CCc2ccc(CC)o2)cc1 | 79.4 µM |
| Fc1ccc2[nH]c3c(c2c1)CN(C(=S)NCc1ccccc1)CC3 | 31.6 µM |
| Cc1nc2c(o1)CCc1ccccc1C2N1CCN(C)CC1 (stereo not drawn) | 0.79 µM and 3.16 µM |
| CN(C)CCN(C(=O)c1ccc2c(c1)OCCO2)c1nc2c(Cl)cccc2s1 | 50.1 µM |
| CCSc1ccc2cc(OC)ccc2[n+]1CC | 50.1 µM |
| Cc1ccc(Sc2c([N+](=O)[O-])c(C)nn2C)cc1 | 35.5 µM |
| NCCCC(=O)N1c2ccccc2Sc2ccccc21 | 44.7 µM |

| SMILES | IC50 |
| --- | --- |
| Cc1cc(C)nc(/N=C(\N)N(Cc2ccccc2)Cc2ccccc2)n1 | 28.2 µM |
| CCCc1cc(-c2[nH]ncc2-c2ccc3c(c2)OCCCO3)c(O)cc1O | 50.1 µM |
| COc1ccccc1Nc1nc(N)nc(CSC(=S)N2CCCCC2C)n1 (stereo not drawn) | 44.7 µM |
| CN(C)c1cc(NC(=O)CN2CCCC2)c2ccccc2n1 | 44.7 µM |
| Cc1ccc(C)c(NC(=O)C(NCC(C)(C)N2CCOCC2)c2ccccc2)c1 (stereo not drawn) | 25.1 µM |
| Cc1cc(N(CCO)CCO)ccc1N=Nc1cc(F)ccc1F | 50.1 µM |
| NCCCn1c(C(=O)c2ccc(Cl)cc2)c2ccc(C(F)(F)F)cc2[n+]1[O-] | 44.7 µM |
| CCN(CC)CCNC(=O)c1ccc(NC(=O)c2cccc(S(=O)(=O)Nc3ccc(C)cc3)c2)cc1 | 31.6 µM |
| CC(C)c1ccc(N2C(=O)CC(Sc3nc4ccccc4o3)C2=O)cc1 (stereo not drawn) | 44.7 µM |
| CC(NC(=O)Nc1nnc(C(F)(F)F)s1)(C(F)(F)F)C(F)(F)F | 22.4 µM |
| CC(C)(C)c1ccc(Cn2c(=N)n(CC(O)c3ccco3)c3ccccc32)cc1 (stereo not drawn) | 44.7 µM |
| COC(=O)c1ccc(Nc2cc(C)nc3ccc(C)cc23)cc1 | 31.6 µM |
| Cc1ccc(C)c(Nc2nc(N)c3ccccc3n2)c1 | 19.9 µM |
| C[n+]1ccccc1/C=C/c1ccc(F)c(F)c1 | 44.7 µM |
| Cc1ccccc1Nc1nc(N)c2ccccc2n1 | 44.7 µM |
| C[n+]1ccc(/C=N/Nc2nc(Cl)c(C#N)c(Cl)c2Cl)cc1 | 39.8 µM |
| CSCc1cc(N(C)c2ccccc2)nc(-c2ccccn2)n1 | 28.2 µM |
| COc1ccc(C(=O)C2CCCN(Cc3cccn3-c3ccccn3)C2)cc1F (stereo not drawn) | 79.4 µM |
| CN(C)CCNc1c2c(c(C#N)c3nc4ccccc4n13)CCCC2 | 79.4 µM |
| CN1CCC(OC(=O)C2c3ccccc3Oc3ccccc32)CC1 | 0.71 µM |
| O=C(CSc1c2c(nc3ccc(Cl)cc13)CCCC2)NCCCN1CCOCC1 | 39.8 µM |
| COc1ccc(-c2cc(=Nc3ccc(C)cc3)c3ccccc3o2)cc1 | 44.7 µM |

| SMILES | IC50 |
| --- | --- |
| CC1(C(O)(C#CC[N+]2(C)CCCCC2)c2ccccc2)CCCC1 (stereo not drawn) | 0.14 µM |
| CCCCCOC(=O)c1ccc(NC(=O)c2ccco2)cc1 | 70.8 µM |
| CC[N+](C)(C)CC/C=C1/c2ccccc2Sc2ccc(Cl)cc21 | 1.58 µM |
| Cc1ccc(C2N(c3ccccc3)C(=S)N3CCCN23)cc1 (stereo not drawn) | 25.1 µM |
| CCN(CC)CCNc1nc2cc(OC)c(OC)cc2c2nc(-c3ccccc3)nn12 | 79.4 µM |
| Oc1ccccc1Oc1ncc(Br)c(N2CCOCC2)n1 | 39.8 µM |
| CCOc1ccc(CNc2ccc3c(c2)ncn3C(C)(C)C)cc1 | 14.1 µM |
| CCN(CC)CCCOC(=O)C(c1ccccc1)c1ccccc1 | 3.16 µM |
| Cc1ccccc1OCC(=O)NCCS(=O)(=O)N1CCN(c2ccc(F)cc2)CC1 | 44.7 µM |
| COc1ccc2ccccc2c1CNC(C)CCc1ccccc1 (stereo not drawn) | 15.8 µM |
| O=C(c1ccc(C(F)(F)F)cc1)C1CCCN(C2CCSCC2)C1 (stereo not drawn) | 39.8 µM |
| COc1ccc(N2C(=O)CSC23C(=O)N2CCCc4cccc3c42)cc1 (stereo not drawn) | 1.12 µM |
| CCOC(=O)c1cnc2c(Cl)cccc2c1NCCN(C)C | 63.1 µM |
| CCN1C(=O)/C(=C\N2CCCCCC2)SC1=S | 14.1 µM |
| COC(=O)c1ccc(NC2(C#N)C(=O)Nc3ccccc32)cc1 (stereo not drawn) | 50.1 µM |
| CCCCCOc1ccc(CSC(=N)N)cc1[N+](=O)[O-] | 79.4 µM |
| COc1cccc(Nc2nc(NCCO)c3ccccc3n2)c1 | 63.1 µM |
| CN1CCC(OC(c2ccccc2)c2ccccc2)CC1 | 15.8 µM |
| N#Cc1c(N2CCNCC2)nc(-c2ccco2)c2c1CCCC2 | 44.7 µM |
| O=C1c2ccccc2-c2onc3c(N4CCN(CCO)CC4)cc(N4CCN(C(=O)c5ccco5)CC4)c1c23 | 79.4 µM |
| CCN(CC)CCSc1nnc2c3ccccc3n(Cc3ccccc3)c2n1 | 44.7 µM |
| CCN1CCN(c2nc3ccccc3nc2C(C#N)C(=O)OCc2ccccc2)CC1 (stereo not drawn) | 70.8 µM |

| SMILES | IC50 |
| --- | --- |
| COCCNC(=O)c1cc2c(=O)n3cccc(C)c3nc2n(Cc2ccncc2)c1=N | 39.8 µM |
| S=C1N(c2ccccc2)C(c2ccc(Br)cc2)N2CCCN12 (stereo not drawn) | 17.8 µM |
| COc1ccc(Cl)cc1Nc1nc(N)c2ccccc2n1 | 31.6 µM |
| Cc1ccc(C(=O)OCCc2sc[n+](Cc3ccccc3)c2C)cc1 | 17.8 µM |
| CCOC(=O)c1c(CNc2ccncc2)n(C)c2cc(Br)c(O)cc12 | 44.7 µM |
| CN(C)C/C=C/C(O)(c1ccccc1)c1ccccc1 | 10 µM |
| CCN(CC)CCCOC(=O)C1(c2ccccc2)CCCC1 | 11.2 µM |
| CN1CCN(CCC(C#N)(c2ccccc2)c2ccccc2)CC1 | 39.8 µM |
| N#CC(c1cccc(Cl)c1)c1ccc2c(C(F)(F)F)cc(C(F)(F)F)nc2n1 (stereo not drawn) | 31.6 µM |
| CC(C)[N+](C)(C)CC#CC(O)(c1ccccc1)c1ccccc1 | 2 µM |
| CC[N+](CC)(CC)CCCOC(=O)C(O)(c1ccccc1)C1CCCCC1 (stereo not drawn) | 0.06 µM |
| Cc1cccc2sc(N(CCCN(C)C)C(=O)c3ccco3)nc12 | 70.8 µM |
| CC(/C=N/n1c(-c2n[nH]c3c2CCC3)n[nH]c1=S)=C\c1ccco1 | 8.91 µM |
| c1ccc(Cn2c(-c3ccccc3)c[n+]3c2SCCC3)cc1 | 3.98 µM |
| CCOC(=O)N1CCC(N2CCN(CCC(C)C)C(CCO)C2)CC1 (stereo not drawn) | 14.1 µM |
| COc1ccc(Nc2ccnc3ccccc23)cc1 | 70.8 µM |
| N=c1c(C(=O)NCCN2CCOCC2)cc2c(=O)n3ccccc3nc2n1CCc1ccccc1 | 50.1 µM |
| COc1cc(-c2nc3ccc(C)cn3c2Nc2ccc3c(c2)OCCO3)ccc1O | 44.7 µM |
| c1ccc(CNc2c3ccccc3nc3ccccc23)cc1 | 70.8 µM |
| CN1CCCC1CCNc1ccc2c(=O)c3ccccc3oc2c1 (stereo not drawn) | 63.1 µM |
| OC(CCN1CCCC1)(c1ccccc1)C1CCCCC1 (stereo not drawn) | 4.47 µM |
| CCN(CC)CCC#CC(O)(c1ccccc1)c1ccccc1 | 14.1 µM |
